Data published in patent publication US10925876B2, “Methods for using triazolo-pyrazinyl soluble guanylate cyclase activators in fibrotic disorders” (Merck Sharp & Dohme Corp., priority 2016, dated 2021).

Tests used:
[1] = molecular target: T1, sGC α1/β1 heterodimer (Homo sapiens, UniProt Q02108+Q02153); assay: Cell-Based sGC Functional Assay (CASA Assay), cGMP generation in CHO-K1/sGC cells;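 also: reference Compound A is a published heme-dependent sGC activator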; settings: maximum cGMP production of Compound A set to 100% activation, read-out: % Act. (percent activation relative to Compound A)
T1 construct: expressed in transfected cells
T1 sequence (Q02108 1-690): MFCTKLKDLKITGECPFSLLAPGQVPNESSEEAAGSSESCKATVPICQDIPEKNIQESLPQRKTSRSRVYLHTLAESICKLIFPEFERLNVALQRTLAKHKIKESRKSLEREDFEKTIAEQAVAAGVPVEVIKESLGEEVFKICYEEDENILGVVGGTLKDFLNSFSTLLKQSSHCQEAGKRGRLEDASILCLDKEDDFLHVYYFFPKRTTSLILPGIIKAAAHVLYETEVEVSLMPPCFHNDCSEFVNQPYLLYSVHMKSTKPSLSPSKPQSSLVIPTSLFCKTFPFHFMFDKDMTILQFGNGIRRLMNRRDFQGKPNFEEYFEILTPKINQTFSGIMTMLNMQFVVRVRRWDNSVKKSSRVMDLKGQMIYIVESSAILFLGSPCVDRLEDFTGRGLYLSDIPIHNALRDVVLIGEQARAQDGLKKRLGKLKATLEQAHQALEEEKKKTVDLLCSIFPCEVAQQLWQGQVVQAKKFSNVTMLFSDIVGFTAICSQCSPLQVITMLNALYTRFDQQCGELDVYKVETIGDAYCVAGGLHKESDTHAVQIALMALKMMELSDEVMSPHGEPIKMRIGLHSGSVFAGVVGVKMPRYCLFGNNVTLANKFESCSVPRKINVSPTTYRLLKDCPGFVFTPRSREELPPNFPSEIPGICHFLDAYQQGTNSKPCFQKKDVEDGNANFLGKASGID
T1 sequence (Q02153 1-619): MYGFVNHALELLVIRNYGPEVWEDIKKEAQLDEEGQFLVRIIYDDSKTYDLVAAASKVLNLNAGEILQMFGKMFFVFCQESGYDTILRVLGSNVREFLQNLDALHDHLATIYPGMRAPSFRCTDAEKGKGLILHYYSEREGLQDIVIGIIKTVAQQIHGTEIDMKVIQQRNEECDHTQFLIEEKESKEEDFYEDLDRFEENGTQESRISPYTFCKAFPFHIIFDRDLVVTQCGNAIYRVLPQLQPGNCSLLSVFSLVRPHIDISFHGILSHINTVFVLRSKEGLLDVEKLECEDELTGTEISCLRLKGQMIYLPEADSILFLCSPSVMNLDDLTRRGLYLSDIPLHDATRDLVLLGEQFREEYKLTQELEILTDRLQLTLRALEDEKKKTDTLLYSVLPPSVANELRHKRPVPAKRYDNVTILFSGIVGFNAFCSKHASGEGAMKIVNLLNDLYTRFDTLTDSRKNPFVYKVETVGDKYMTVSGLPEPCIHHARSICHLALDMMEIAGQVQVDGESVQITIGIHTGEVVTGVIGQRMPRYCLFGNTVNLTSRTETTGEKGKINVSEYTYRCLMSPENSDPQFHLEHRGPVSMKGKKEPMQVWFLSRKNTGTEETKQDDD
Method in brief: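 CHO-K1 cells stably expressing human sGC α1/β1, 4×10^5/mL in EBSS with 5 mM MgCl2, 10 mM HEPES, 0.05% BSA, 0.5 mM IBMX, 2.5% DMSO; compounds 1 h at 37 °C ± 1 μM DETA-NO. cGMP by HTRF, expressed as % of reference Compound A maximum; IP and max fold induction from 4P fit.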

[2] = system: Spontaneously hypertensive rats (SHR); assay: Acute Efficacy in Spontaneously Hypertensive Rats (SHR), telemetry blood pressure; format: in vivo, rat; settings: single oral gavage
Method in brief: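 Male SHR fitted with aortic telemetry transmitters and recovered 14 days; conscious blood pressure sampled 30 s every 10 min. Single oral gavage dose (vehicle 10% transcutol/20% Cremophor/70% water); hourly SBP change versus prior-day vehicle baseline, reported as maximum peak decrease.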

| SMILES | Emax [1] [%] | Maximum peak decrease of systolic blood pressure (SBP) in SHR, Cat. ([2]; P.O. 0.3 mpk) | Maximum peak decrease of systolic blood pressure (SBP) in SHR, Cat. ([2]; P.O. 2 mpk) | Maximum peak decrease of systolic blood pressure (SBP) in SHR, Cat. ([2]; P.O. 1 mpk) | Maximum peak decrease of systolic blood pressure (SBP) in SHR, Cat. ([2]; P.O. 3 mpk) |
| --- | --- | --- | --- | --- | --- |
| CCCCc1nc(-c2nc(N)c3c(n2)NC(=O)C3(C)c2ccc(C(F)(F)F)cn2)cn2ncnc12 (centres unmarked) [Example 67B, 4-amino-2-(8-butyl-[1,2,4]triazolo[1,5-a]pyrazin-6-yl)-5-methyl-5-(5-(trifluoromethyl)pyridin-2-yl)-5H-pyrrolo[2,3-d]pyrimidin-6(7H)-one] | 119 | B (Category B=SBP in SHRs 20-40 mmHg) |  |  |  |
| CCCc1nc(-c2nc(O)c3c(n2)NC(=O)C3(C)c2ccc(Cl)cc2)cn2ncnc12 (centres unmarked) [Example 164A, 5-(4-chlorophenyl)-4-hydroxy-5-methyl-2-(8-propyl-[1,2,4]triazolo[1,5-a]pyrazin-6-yl)-5H-pyrrolo[2,3-d]pyrimidin-6(7H)-one] | 253 |  | B (Category B=SBP in SHRs 20-40 mmHg) |  |  |
| Nc1nc(-c2cn3ncnc3c(CCCC(F)(F)F)n2)nc2c1C(c1ccc(C(F)(F)F)cn1)(C1CC1)C(=O)N2 (single isomer, unassigned) [Example 2A, 4-Amino-5-cyclopropyl-2-(8-(4,4,4-trifluorobutyl)-[1,2,4]triazolo[1,5-a]pyrazin-6-yl)-5-(5-(trifluoromethyl)pyridin-2-yl)-5H-pyrrolo[2,3-d]pyrimidin-6(7H)-one] | 111 | A (Category A=SBP in SHRs <20 mmHg) |  |  |  |
| CC(C)Cc1nc(-c2ncc3c(n2)NC(=O)[C@@]3(C)c2ccc(F)cc2)cn2ncnc12 [Example 173A, (S)-5-(4-fluorophenyl)-2-(8-isobutyl-[1,2,4]triazolo[1,5-a]pyrazin-6-yl)-5-methyl-5,7-dihydro-6H-pyrrolo[2,3-d]pyrimidin-6-one] | 176 |  |  | A (Category A=SBP in SHRs <20 mmHg) |  |
| C[C@@]1(c2ccc(F)cc2)C(=O)Nc2nc(-c3cn4ncnc4c(CCC(F)(F)F)n3)nc(O)c21 [Example 151A, (S)-5-(4-fluroophenyl)-4-hydroxy-5-methyl-2-(8-(3,3,3-trifluoropropyl)-[1,2,4]triazolo[1,5-a]pyrazin-6-yl)-5,7-dihydro-6H-pyrrolo[2,3-d]pyrimidin-6-one] | 120 |  |  |  | B (Category B=SBP in SHRs 20-40 mmHg) |
| O=C1Nc2nc(-c3cn4ncnc4c(CCCC(F)(F)F)n3)nc(O)c2C1(c1ccc(F)c(F)c1)C1CC1 (centres unmarked) [Example 141A, 5-cyclopropyl-5-(3,4-difluorophenyl)-4-hydroxy-2-(8-(4,4,4-trifluorobutyl)-[1,2,4]triazolo[1,5-a]pyrazin-6-yl)-5H-pyrrolo[2,3-d]pyrimidin-6(7H)-one] | 133 |  |  | B (Category B=SBP in SHRs 20-40 mmHg) |  |
| Nc1nc(-c2cn3ncnc3c(CCCC(F)(F)F)n2)nc2c1C(c1ccc(Cl)c(F)c1)(C1CC1)C(=O)N2 (centres unmarked) [Example 33A, 4-amino-5-(4-chloro-3-fluorophenyl)-5-cyclopropyl-2-(8-(4,4,4-trifluorobutyl)-[1,2,4]triazolo[1,5-a]pyrazin-6-yl)-5H-pyrrolo[2,3-d]pyrimidin-6(7H)-one] | 107 | C (Category C=SBP in SHRs >40 mmHg) |  |  |  |
| CC1(c2ccc(C(F)(F)F)cn2)C(=O)Nc2nc(-c3cn4ncnc4c(CCCC(F)(F)F)n3)nc(N)c21 (centres unmarked) [Example 25B, 4-amino-5-methyl-2-(8-(4,4,4-trifluorobutyl)-[1,2,4]triazolo[1,5-a]pyrazin-6-yl)-5-(5-(trifluoromethyl)pyridin-2-yl)-5H-pyrrolo[2,3-d]pyrimidin-6(7H)-one] | 131 | B (Category B=SBP in SHRs 20-40 mmHg) |  |  |  |
| Nc1nc(-c2cn3ncnc3c(CCCC(F)(F)F)n2)nc2c1C(c1ncc(Cl)cn1)(C1CC1)C(=O)N2 (centres unmarked) [Example 41A, 4-amino-5-(5-chloropyrimidin-2-yl)-5-cyclopropyl-2-(8-(4,4,4-trifluorobutyl)-[1,2,4]triazolo[1,5-a]pyrazin-6-yl)-5H-pyrrolo[2,3-d]pyrimidin-6(7H)-one] | 151 | B (Category B=SBP in SHRs 20-40 mmHg) |  |  |  |
| Cc1ccc(C2(C3CC3)C(=O)Nc3nc(-c4cn5ncnc5c(CCC(F)(F)C(F)(F)F)n4)nc(N)c32)nc1 (racemic) [Example 17B, 4-amino-5-cyclopropyl-5-(5-methylpyridin-2-yl)-2-(8-(3,3,4,4,4-pentafluorobutyl)-[1,2,4]triazolo[1,5-a]pyrazin-6-yl)-5H-pyrrolo[2,3-d]pyrimidin-6(7H)-one] | 119 | A (Category A=SBP in SHRs <20 mmHg) |  |  |  |
| CC1(c2ccc(Cl)cc2)C(=O)Nc2nc(-c3cn4ncnc4c(CCC(F)(F)F)n3)nc(N)c21 (centres unmarked) [Example 76A, 4-amino-5-(4-chlorophenyl)-5-methyl-2-(8-(3,3,3-trifluoropropyl)-[1,2,4]triazolo[1,5-a]pyrazin-6-yl)-5H-pyrrolo[2,3-d]pyrimidin-6(7H)-one] | 120 | A (Category A=SBP in SHRs <20 mmHg) |  |  |  |
| CC1(c2ccc(C(F)(F)F)cn2)C(=O)Nc2nc(-c3cn4ncnc4c(CCCC(F)(F)F)n3)nc(C(N)=O)c21 (centres unmarked) [Example 179B, 5-methyl-6-oxo-2-(8-(4,4,4-trifluorobutyl)-[1,2,4]triazolo[1,5-a]pyrazin-6-yl)-5-(5-(trifluoromethyl)pyridin-2-yl)-6,7-dihydro-5H-pyrrolo[2,3-d]pyrimidine-4-carboxamide] | 101 | B (Category B=SBP in SHRs 20-40 mmHg) |  |  |  |
| Cc1nc2c(CCC(F)(F)C(F)(F)F)nc(-c3nc(N)c4c(n3)NC(=O)C4(C)c3nnc(C4CC4)o3)cn2n1 (centres unmarked) [Example 103A, 4-amino-5-(5-cyclopropyl-1,3,4-oxadiazol-2-yl)-5-methyl-2-(2-methyl-8-(3,3,4,4,4-pentafluorobutyl)-[1,2,4]triazolo[1,5-a]pyrazin-6-yl)-5H-pyrrolo[2,3-d]pyrimidin-6(7H)-one] | 104 |  | A (Category A=SBP in SHRs <20 mmHg) |  |  |
| CC1(c2ccc(C(F)(F)F)cc2)C(=O)Nc2nc(-c3cn4ncnc4c(CCC(F)(F)F)n3)nc(N)c21 (centres unmarked) [Example 77B, 4-amino-5-methyl-5-(4-(trifluoromethyl)phenyl)-2-(8-(3,3,3-trifluoropropyl)-[1,2,4]triazolo[1,5-a]pyrazin-6-yl)-5H-pyrrolo[2,3-d]pyrimidin-6(7H)-one] | 112 |  |  | A (Category A=SBP in SHRs <20 mmHg) |  |
| CC1(c2ccc(Cl)cn2)C(=O)Nc2nc(-c3cn4ncnc4c(CCC(F)(F)C(F)(F)F)n3)nc(N)c21 (centres unmarked) [Example 3A, 4-amino-5-(5-chloropyridin-2-yl)-5-methyl-2-(8-(3,3,4,4,4-pentafluorobutyl)-[1,2,4]triazolo[1,5-a]pyrazin-6-yl)-5H-pyrrolo[2,3-d]pyrimidin-6(7H)-one] | 161 | B (Category B=SBP in SHRs 20-40 mmHg) |  |  |  |
| CCCCc1nc(-c2nc(N)c3c(n2)NC(=O)C3(c2ccc(F)c(F)c2)C2CC2)cn2ncnc12 (centres unmarked) [Example 65A, 4-amino-2-(8-butyl-[1,2,4]triazolo[1,5-a]pyrazin-6-yl)-5-cyclopropyl-5-(3,4-difluorophenyl)-5H-pyrrolo[2,3-d]pyrimidin-6(7H)-one] | 104 | C (Category C=SBP in SHRs >40 mmHg) |  |  |  |
